The values below come from patent US7252936B2 (priority 1994, dated 2007).

The test system of experiment [1] is M. tuberculosis strains with Aspartic acid 516 changed into Valine or Tyrosine. It is filed as cell-based.
Another experiment deals with M. tuberculosis. The experiment in a line: microbe, parasite or virus in culture. It is filed as cell-based. As to conditions: Mycobacterium tuberculosis, read-out: MIC (Minimal Inhibitory Concentration).

As to `CO[C@H]1/C=C/O[C@@]2(C)Oc3c(C)c(O)c4c(c3C2=O)C2=NC3(CCN(CC(C)C)CC3)NC2=C(NC(=O)/C(C)=C\C=C\[C@H](C)[C@H](O)[C@@H](C)[C@@H](O)[C@@H](C)[C@H](OC(C)=O)[C@@H]1C)C4=O` [rifabutin], the “Resistance or sensitivity of strains with the mutation” value in experiment [1] is “sensitivity to rifabutin is maintained”.

In the case of `CO[C@H]1/C=C/O[C@@]2(C)Oc3c(C)c(O)c4c(O)c(c(/C=N/N5CCN(C)CC5)c(O)c4c3C2=O)NC(=O)/C(C)=C\C=C\[C@H](C)[C@H](O)[C@@H](C)[C@@H](O)[C@@H](C)[C@H](OC(C)=O)[C@@H]1C` [rifampicin], in the experiment with M. tuberculosis, the MIC is greater than 2 µg/mL.
